{"source": "patent US12702660B2", "about": "“Method for treating cancer with an oral dosage form of an estrogen receptor-alpha inhibitor” (Eisai R&D Management Co., Ltd., priority 2019, dated 2026)", "format_in_all_cases": "in vivo, human", "key": {"[1]": {"tested_on": "ER target gene expression", "assay": "Pharmacodynamics: ER target gene expression", "conditions": "patients, 100 to 450 mg/day", "description": "Methods were used to analyze whether H3B-6545 inactivates both wild-type and mutant ERα by targeting cysteine 530 and enforcing a unique antagonist conformation. Methods: Women with locally advanced or metastatic HR+BC are treated (tx) with H3B-6545 drug product administered once daily orally by capsule over a 28 day cycle after progression on at least one hormonal therapy and at least one additional therapy/regimen. Dose escalation uses a 3+3 design with the option to backfill previously cleared doses and allows for intrapatient dose escalation. This example explored the safety, pharmacokinetics and pharmacodynamics of H3B-6545 in women with HR+BC to identify a recommended subsequent dose for testing."}, "[2]": {"tested_on": "ctDNA (ESR1, PIK3CA and AKT1 mutations)", "assay": "ctDNA mutant allele frequency monitoring (BEAMing, ddPCR) in plasma", "description": "Fresh plasma samples were collected at baseline (predose), cycle 1 day 15 (CID15), C2D1, C3D1 and every 8 weeks thereafter with a final sample collection at disease progression. At baseline, BEAMing digital PCR was used to evaluate hotspot mutations in ESR1, PIK3CA and AKT1. Patient specific ctDNA mutations were subsequently monitored by ddPCR. Baseline tumor biopsies were subjected to a targeted Next Generation Sequencing (NGS) panel to identify hotspot mutations.\n• H3B-6545 administered once daily orally (PO QD) over a 28-day cycle • Dose escalation using a standard 3+3 study design using dose cohorts of 100, 200, 300, 450, and 600 mg/day\nLiquid biopsy assays: 10 ml of Strek plasma was collected at the site and then processed into plasma at Sysmex Inostics. cfDNA was isolated from 2 ml of plasma for BEAMing and 3 ml for Biorad ddPCR"}, "[3]": {"tested_on": "locally advanced or metastatic ER+HER2−BC", "assay": "Tumor response and progression-free survival, phase 1 dose escalation", "conditions": "as of 10 Dec. 2018; 32 patients, 100 to 450 mg/day"}}, "note": "Entries after “also recorded” stand apart in the source; their conditions may differ."}
{"smiles": "CN(C)C(=O)/C=C/CNCCOc1ccc(/C(=C(/CC(F)(F)F)c2ccccc2)c2ccc3[nH]nc(F)c3c2)cn1", "note": "[H3B-6545, (E)-N,N-dimethyl-4-[2-[5-[(Z)-4,4,4-trifluoro-1-(3-fluoro-1H-indazol-5-yl)-2-phenylbut-1-enyl]pyridin-2-yl]oxyethylamino]but-2-enamide]", "values": [{"measurement": "ER target gene expression", "setting": "[1]", "value": "inhibited ER target gene expression"}, {"measurement": "changes in mutant allele frequencies versus response", "setting": "[2]; plasma", "value": "show correlation in response to treatment; also recorded: show correlation to clinical response"}, {"measurement": "ctDNA levels by C2D1 in patients with confirmed partial response", "setting": "[2]; serial ctDNA monitoring", "value": "undetectable"}, {"measurement": "patients with confirmed partial responses whose ctDNA levels were undetectable by C2D1", "setting": "[2]; serial ctDNA monitoring", "value": "3/3"}, {"measurement": "patients with progressive disease whose ctDNA levels increased from baseline", "setting": "[2]; serial ctDNA monitoring", "value": "3/4"}, {"measurement": "Partial responses (PRs), patients", "setting": "[3]", "value": 3, "unit": "patients"}, {"measurement": "Stable disease, % of patients", "setting": "[3]", "value": 47, "unit": "%"}, {"measurement": "patients who completed at least 6 months of treatment", "setting": "[3]", "value": 34, "unit": "%"}]}
